Format in all cases: in vivo, BDF mice
Series [1] can be described thus: Repressing side effects (2): number of leukocytes in blood under CDDP. The note with it: Control Group: CDDP 2 mg/kg i.p. once daily for 10 days. On the procedure:
CDDP was intraperitoneally administered in a dosage of 2 mg/kg to 5 BDF mice of 8 weeks old once daily for 10 days. These mice formed Control Group. A group of mice to which CDDP was administered simultaneously with TMG in a dosage of 1 mg/kg once daily for 10 days formed Test Group. The time course changes of the numbers of leukocytes in blood of the Control Group and Test Group were measured.

The nature of series [2]: Repressing side effects (1): survival after lethal dose of CDDP. On the procedure:
CDDP was intraperitoneally administered in a dosage of 16 mg/kg, a lethal dose, to 10 BDF mice of 8 weeks old (22-25 g). These mice formed Control Group. A group of mice to which CDDP was administered simultaneously with TMG in a dosage of 0.01 mg/kg formed Test Group 1 and a group of mice to which CDDP was administered simultaneously with TMG in a dosage of 1.0 mg/kg formed Test Group 2. The time course changes of survival ratio of the Control Group and Test Groups were measured.

Series [3] has as its system P388 leukemia cells. The series can be described thus: Enhancing carcinostatic action in cancer chemotherapy (1): CDDP and TMG, survival of P388 leukemia mice. Conditions: 5th, TMG 0, 60 days; for Number surviving: 8 per group. On the procedure:
P388 leukemia cells (6×10^6 cells) were administered intraperitoneally to female BDF mice of 8-9 weeks old (8 heads per group, body weight of 20-22 g). On the following day, a solution having prescribed amounts of cisplatin (CDDP) and TMG in 0.2 ml of physiological saline was intraperitoneally administered to the mice. The survival ratio of these mice was measured 60 days after the administration of CDDP and TMG.

Series [4] relates to P388 leukemia cells. Description: Enhancing carcinostatic action in cancer chemotherapy (2): CPA and TMG, survival of P388 leukemia mice. The note with it: CPA alone administered, 360 mg/kg i.p. 1st, 3rd, 5th, 7th days, 60 days. On the procedure: P388 leukemia cells (6×10^6 cells) were administered intraperitoneally to female BDF mice of 8-9 weeks old (8 heads per group, body weight of 20-22 g). On the following day (1st day), cyclophosphamide (CPA) and TMG were administered at respective dose of 360 mg/kg and 0.01 mg/kg were intraperitoneally administered to the mice. Thereafter, CPA (360 mg/kg) was administered on the 3rd, 5th, and 7th days and TMG (0.01 mg/kg) was administered every day from the 2nd through 9th days. The survival ratio of these mice was measured 60 days after the administration of CPA and TMG.

A short description of series [5]: Repressing side effects (4): decrease of body weight under ADM in P388 leukemia mice. The note with it: Control Group: ADM 16 mg/kg once daily for 9 days. On the procedure: P388 leukemia cells (6×10^6 cells) were administered intraperitoneally to female BDF mice of 8-9 weeks old (8 heads per group, body weight of 20-22 g). On the following day, ADM was administered in a dosage of 16 mg/kg once daily for 9 days. The mice formed Control Group. A group of mice to which TMG was administered simultaneously with ADM in a dosage of 0.1 mg/kg once daily for 9 days formed Test Group.
The time-course changes of the body weight of the Control Group and Test Group were measured.

Series [6] has as its system P388 leukemia cells. Description: Enhancing carcinostatic action in cancer chemotherapy (3): ADM and TMG, survival of P388 leukemia mice. The note with it: ADM 16 mg/kg i.p. 1st, 3rd, 5th, 7th days, TMG 0, 7 days after administration. On the procedure:
P388 leukemia cells (6×10^6 cells) were administered intraperitoneally to female BDF mice of 8-9 weeks old (8 heads per group, body weight of 20-22 g). On the following day (1st day), 16 mg/kg of adriamycin (ADM) and a prescribed amount TMG were intraperitoneally administered to the mice. Thereafter, ADM (16 mg/kg) was administered on the 3rd, 5th, and 7th days and TMG (prescribed amount as mentioned above) was simultaneously administered every day on the 2nd-7th days. The survival ratio of these mice was measured 7 days after the administration of ADM and TMG.

[7] abbreviates: CDDP 2 mg/kg i.p. 1st, 3rd, 7th days.
The mark [8] stands for this setting: CDDP 4 mg/kg i.p. 1st, 9th days.

Turning to `[NH2][Pt]([NH2])([Cl])[Cl]` [CDDP, cisplatin], the Number of leukocytes was 20000 µL⁻¹ in series [1] (day 0 after start of test), 10000 µL⁻¹ in series [1] (day 10), 6000 µL⁻¹ in series [1] (day 20) and 11000 µL⁻¹ in series [1] (day 25). Also, the Survival ratio is reported as 100% in series [2] (Control Group: CDDP 16 mg/kg i.p. (lethal dose) alone, day 0 after administration of CDDP); 80% in series [2] (Control Group: CDDP 16 mg/kg i.p. alone, day 5); 30% in series [2] (Control Group: CDDP 16 mg/kg i.p. alone, day 8); 0% in series [2] (Control Group: CDDP 16 mg/kg i.p. alone, day 10); 75% in series [3] (setting [7]); 75% in series [3] (setting [8]). In addition, the Number surviving in series [3] (setting [7]) and in series [3] (setting [8]) was 6 Heads throughout.

On to `O=P1(N(CCCl)CCCl)NCCCO1` (centres unmarked) [CPA, cyclophosphamide], for which the Survival ratio in series [4] is recorded as 50%. For the same compound, the Number surviving in series [4] (8 per group) came to 4 Heads.

On to `COc1cccc2c1C(=O)c1c(O)c3c(c(O)c1C2=O)C[C@@](O)(C(=O)CO)C[C@@H]3O[C@H]1C[C@H](N)[C@H](O)[C@H](C)O1` [ADM, adriamycin], for which the “Decrease of body weight” value in series [5] (P388 mice, day 1 after start of the test) amounted to 1.5 g; in series [5] (day 3) it was 3.3 g; in series [5] (day 5) it was 5.7 g; in series [5] (day 7), 6.5 g. Moreover, in series [6], the Survival ratio came to 0%. Also, the Number surviving in series [6] (8 per group) was determined as 0 Heads.

(Values after patent publication US7462601B2, “Ameliorant for chemical treatment of cancer” (priority 2002, dated 2008).)
